This assay deals with T1, OX2 (Homo sapiens, UniProt O43614).
T1 sequence (O43614 1-444): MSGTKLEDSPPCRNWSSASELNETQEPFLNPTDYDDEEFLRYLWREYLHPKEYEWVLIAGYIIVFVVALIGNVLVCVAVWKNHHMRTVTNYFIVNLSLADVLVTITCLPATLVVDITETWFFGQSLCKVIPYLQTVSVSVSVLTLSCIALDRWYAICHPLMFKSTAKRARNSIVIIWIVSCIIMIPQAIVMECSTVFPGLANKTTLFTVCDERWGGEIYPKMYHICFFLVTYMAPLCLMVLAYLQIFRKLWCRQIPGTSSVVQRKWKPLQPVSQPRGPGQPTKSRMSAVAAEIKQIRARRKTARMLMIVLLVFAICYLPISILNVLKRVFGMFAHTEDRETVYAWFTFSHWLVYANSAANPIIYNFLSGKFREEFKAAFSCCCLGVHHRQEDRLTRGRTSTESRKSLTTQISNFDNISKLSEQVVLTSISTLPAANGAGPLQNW
In words: Measurement of orexin receptor-binding ability ([125I]-OX-A, cell membranes, OX2). The note with it: membranes of recombinant CHO cells expressing OX2, 0.2 nM [125I]-OX-A. Also on record: expressed in transfected cells; host or cells: CHO cells (membrane preparation). Here is the method:
1. Measurement of Orexin Receptor-Binding Ability
The assay was carried out using a 96-well Wheat Germ Agglutinin Flash Plate (PerkinElmer). The volume in a single assay well was 100 ul, and the composition of the reaction solution was as follows:
25 mM HEPES (pH 7.5), 1 mM CaCl2, 4.5 mM MgCl2, 0.5% BSA (bovine serum albumin), 0.1% sodium azide, 0.05% Tween-20, and 0.2% DMSO.
Cell membranes were prepared from recombinant CHO cells that expressed OX2 or OX1. The cell membranes were used in an amount of 5 μg protein/assay. […] Finally, the radioactivity of each well was measured using a scintillation counter (TopCount, PerkinElmer).

44 compounds from patent publication US8268848B2, “Cyclopropane compound” (Eisai R&D Management Co., Ltd., priority 2010, dated 2012) can be followed below.

One may read the IC50 as the concentration that gives 50% inhibition.

Molecules are shown by their SMILES. Read-outs that look alike come from different tables or passages of the source.

Take `Cc1ncc(OC[C@@]2(c3ccccc3)C[C@H]2C(=O)Nc2ccnc(C(F)(F)F)c2)c(C)n1` [Example 44]: under “read-out: OX2 (IC50)”, the 50% inhibitory concentration (IC50) is 26 nM. Take `Cc1ncc(OC[C@@]2(c3cccc(F)c3)C[C@H]2C(=O)Nc2cccc(F)c2)c(C)n1` [Example 83]: the 50% inhibitory concentration (IC50) (OX2 (IC50) nM) was 14 nM. As for `Cc1ncc(OC[C@@]2(c3ccc(F)cc3)C[C@H]2C(=O)Nc2ccc(F)c(F)c2)c(C)n1` [Example 106], the 50% inhibitory concentration (IC50) (read-out: OX2 (IC50)) was 19 nM. For `Cc1ncc(OC[C@@]2(c3ccc(F)cc3)C[C@H]2C(=O)Nc2cccc(F)c2)c(C)n1` [Example 107], the IC50 (OX2 (IC50) nM) stood at 41 nM. Consider `Cc1ncc(OC[C@@]2(c3cccc(C#N)c3)C[C@H]2C(=O)Nc2ccc(F)cc2)c(C)n1` [Example 115], for which the IC50 (read-out: OX2 (IC50)) turned out to be 21 nM. Consider `Cc1ncc(OC[C@@]2(c3cccc(C#N)c3)C[C@H]2C(=O)Nc2ccc(F)cn2)c(C)n1` [Example 116], for which the IC50 (OX2 (IC50) nM) is 14 nM. Take `CCc1nc(C)ncc1OC[C@@]1(c2ccccc2)C[C@H]1C(=O)Nc1cncc(OC)c1` [Example 123]: the IC50 (read-out: OX2 (IC50)) turned out to be 29 nM. Still for that read-out and setting: the result for `CCc1nc(C)ncc1OC[C@@]1(c2ccccc2)C[C@H]1C(=O)Nc1ccc(F)cc1` [Example 124] reads 31 nM; that for `Cc1ncc(OC[C@@]2(c3cc(F)cc(F)c3)C[C@H]2C(=O)Nc2cc(F)ccc2F)c(C)n1` [Example 136], 15 nM; that for `COCc1nc(C)ncc1OC[C@@]1(c2ccccc2)C[C@H]1C(=O)Nc1cc(Cl)ccn1` [Example 143], 14 nM. With `COCc1nc(C)ncc1OC[C@@]1(c2ccccc2)C[C@H]1C(=O)Nc1ccc(C(F)(F)F)cn1` [Example 144], the IC50 (read-out: OX2 (IC50)) amounted to 12 nM. Still for that read-out and setting: to `COCc1nc(C)ncc1OC[C@@]1(c2ccccc2)C[C@H]1C(=O)Nc1cc(C)c(F)cn1` [Example 145, (1R,2S)-N-(5-fluoro-4-methylpyridin-2-yl)-2-{[(4-methoxymethyl-2-methylpyrimidin-5-yl)oxy]methyl}-2-phenylcyclopropanecarboxamide] belongs 9 nM; to `COCc1nc(C)ncc1OC[C@@]1(c2ccccc2)C[C@H]1C(=O)Nc1ccc(F)cc1F` [Example 146], 37 nM; to `COCc1nc(C)ncc1OC[C@@]1(c2ccccc2)C[C@H]1C(=O)Nc1cc(F)ccc1F` [Example 147], 69 nM. Still for that read-out and setting: the result for `COCc1nc(C)ncc1OC[C@@]1(c2ccccc2)C[C@H]1C(=O)Nc1cccc(F)c1` [Example 148] reads 20 nM; that for `COCc1nc(C)ncc1OC[C@@]1(c2ccccc2)C[C@H]1C(=O)Nc1ccc(F)cc1` [Example 149, (1R,2S)-N-(4-fluorophenyl)-2-{[(4-methoxymethyl-2-methylpyrimidin-5-yl)oxy]methyl}-2-phenylcyclopropanecarboxamide], 10 nM; that for `COCc1nc(C)ncc1OC[C@@]1(c2ccccc2)C[C@H]1C(=O)Nc1ccc(F)c(F)c1` [Example 150, (1R,2S)-N-(3,4-difluorophenyl)-2-{[(4-methoxymethyl-2-methylpyrimidin-5-yl)oxy]methyl}-2-phenylcyclopropanecarboxamide], 10 nM.

Turning to `Cc1ncc(OC[C@@]2(c3ccc(F)c(F)c3)C[C@H]2C(=O)Nc2ccc(F)c(F)c2)c(C)n1` [Example 170, (1R,2S)-N,2-bis(3,4-difluorophenyl)-2-{[(2,4-dimethylpyrimidin-5-yl)oxy]methyl}cyclopropanecarboxamide], the IC50 (read-out: OX2 (IC50)) turned out to be 7 nM. Take `Cc1ncc(OC[C@@]2(c3ccc(F)c(F)c3)C[C@H]2C(=O)Nc2cc(F)ccc2F)c(C)n1` [Example 172]: the IC50 (read-out: OX2 (IC50)) amounted to 28 nM. Take `COc1cccc([C@]2(COc3cnc(C)nc3C)C[C@H]2C(=O)Nc2ccc(F)cc2)c1` [Example 187]: the half-maximal inhibitory concentration (IC50) (OX2 (IC50) nM) is 16 nM. Take `COc1cccc([C@]2(COc3cnc(C)nc3C)C[C@H]2C(=O)Nc2ccccn2)c1` [Example 188]: where the note is “read-out: OX2 (IC50)”, the IC50 is 61 nM.

On to `COCc1nc(C)ncc1OC[C@@]1(c2cccc(F)c2)C[C@H]1C(=O)Nc1cc(F)ccc1F` [Example 197, (1R,2S)-N-(2,5-difluorophenyl)-2-(3-fluorophenyl)-2-{[(4-methoxymethyl-2-methylpyrimidin-5-yl)oxy]methyl}cyclopropanecarboxamide], for which the IC50 (read-out: OX2 (IC50)) was found to be 7 nM. Same read-out and setting: the result for `COCc1nc(C)ncc1OC[C@@]1(c2ccc(F)cc2)C[C@H]1C(=O)Nc1ccccn1` [Example 206] reads 27 nM; that for `COCc1nc(C)ncc1OC[C@@]1(c2ccc(F)cc2)C[C@H]1C(=O)Nc1cccc(F)c1` [Example 208], 11 nM. As to `COCc1nc(C)ncc1OC[C@@]1(c2ccc(F)cc2)C[C@H]1C(=O)Nc1ccc(F)cc1F` [Example 209], for the setting “read-out: OX2 (IC50)”, the 50% inhibitory concentration (IC50) came out at 48 nM. On the same count and under the same terms, to `COCc1nc(C)ncc1OC[C@@]1(c2ccc(F)cc2)C[C@H]1C(=O)Nc1cc(F)ccc1F` [Example 210] belongs more than 60 nM. Still for that read-out and setting: to `COCc1nc(C)ncc1OC[C@@]1(c2ccc(F)c(F)c2)C[C@H]1C(=O)Nc1ccc(F)c(F)c1` [Example 214, (1R,2S)-N,2-bis(3,4-difluorophenyl)-2-{[(4-methoxymethyl-2-methylpyrimidin-5-yl)oxy]methyl}cyclopropanecarboxamide] belongs 7 nM; to `COCc1nc(C)ncc1OC[C@@]1(c2ccc(F)c(F)c2)C[C@H]1C(=O)Nc1cc(F)ccc1F` [Example 215], 12 nM; to `COCc1nc(C)ncc1OC[C@@]1(c2ccc(F)c(F)c2)C[C@H]1C(=O)Nc1ccc(F)cc1F` [Example 216, (1R,2S)-N-(2,4-difluorophenyl)-2-(3,4-difluorophenyl)-2-{[(4-methoxymethyl-2-methylpyrimidin-5-yl)oxy]methyl}cyclopropanecarboxamide], 7 nM.

With `COCc1nc(C)ncc1OC[C@@]1(c2ccc(F)c(F)c2)C[C@H]1C(=O)Nc1cccc(F)c1F` [Example 217], the IC50 (read-out: OX2 (IC50)) came out at 21 nM.

In the case of `COCc1nc(C)ncc1OC[C@@]1(c2cc(F)cc(F)c2)C[C@H]1C(=O)Nc1cc(C)c(F)cn1` [Example 220], the concentration for half-maximal inhibition (IC50) (read-out: OX2 (IC50)) was 21 nM.

With `COCc1nc(C)ncc1OCC1(c2cccc(Cl)c2)CC1C(=O)Nc1ccc(F)cn1` (centres unmarked) [Example 222], for the setting “OX2 (IC50) nM”, the 50% inhibitory concentration (IC50) came to 68 nM. As to `COCc1nc(C)ncc1OCC1(c2cccc(Cl)c2)CC1C(=O)Nc1ccc(Cl)cn1` (centres unmarked) [Example 223], the IC50 (read-out: OX2 (IC50)) stood at 34 nM. The same measure, in the same setting: to `COCc1nc(C)ncc1OCC1(c2cccc(Cl)c2)CC1C(=O)Nc1ccc(F)cc1` (centres unmarked) [Example 224] belongs 27 nM; to `COCc1nc(C)ncc1OC[C@@]1(c2cccc(Cl)c2)C[C@H]1C(=O)Nc1cc(C)c(F)cn1` [Example 226, (1R,2S)-2-(3-chlorophenyl)-N-(5-fluoro-4-methylpyridin-2-yl)-2-{[(4-methoxymethyl-2-methylpyrimidin-5-yl)oxy]methyl}cyclopropanecarboxamide], 7 nM; to `COCc1nc(C)ncc1OCC1(c2cccc(Cl)c2)CC1C(=O)Nc1ccc(C#N)cn1` (centres unmarked) [Example 227], 14 nM.

As to `COCCc1nc(C)ncc1OC[C@@]1(c2cccc(F)c2)C[C@H]1C(=O)Nc1ccccn1` [Example 228], the IC50 (read-out: OX2 (IC50)) came out at 45 nM. In the case of `COCCc1nc(C)ncc1OC[C@@]1(c2cccc(F)c2)C[C@H]1C(=O)Nc1ccc(F)cc1` [Example 230], the IC50 (read-out: OX2 (IC50)) came out at 16 nM. The same measure, in the same setting: the result for `COCc1nc(C)ncc1OC[C@@]1(c2cc(F)cc(OC)c2)C[C@H]1C(=O)Nc1ccc(F)cc1` [Example 231, (1R,2S)-2-(3-fluoro-5-methoxyphenyl)-N-(4-fluorophenyl)-2-{[(4-methoxymethyl-2-methylpyrimidin-5-yl)oxy]methyl}cyclopropanecarboxamide] reads 7 nM; that for `COCc1nc(C)ncc1OC[C@@]1(c2cc(F)cc(OC)c2)C[C@H]1C(=O)Nc1ccc(F)cn1` [Example 233, (1R,2S)-2-(3-fluoro-5-methoxyphenyl)-N-(5-fluoropyridin-2-yl)-2-[(4-methoxymethyl-2-methylpyrimidin-5-yl)oxymethyl]cyclopropanecarboxamide], 6 nM; that for `COCc1nc(C)ncc1OC[C@@]1(c2cc(F)cc(OC)c2)C[C@H]1C(=O)Nc1ccccn1` [Example 235, (1R,2S)-2-(3-fluoro-5-methoxyphenyl)-2-[(4-methoxymethyl-2-methylpyrimidin-5-yl)oxymethyl]-N-(pyridin-2-yl)cyclopropanecarboxamide], 6 nM. Consider `COCc1nc(C)ncc1OC[C@@]1(c2ccc(F)c(OC)c2)C[C@H]1C(=O)Nc1ccc(F)cc1` [Example 237], for which the concentration for half-maximal inhibition (IC50) (read-out: OX2 (IC50)) was found to be 31 nM. Same read-out and setting: to `COCc1nc(C)ncc1OC[C@@]1(c2ccc(F)c(OC)c2)C[C@H]1C(=O)Nc1ccc(F)c(F)c1` [Example 238] belongs 15 nM.

As for `COCc1nc(C)ncc1OC[C@@]1(c2ccc(F)c(OC)c2)C[C@H]1C(=O)Nc1cc(C)c(F)cn1` [Example 239, (1R,2S)-2-(4-fluoro-3-methoxyphenyl)-N-(5-fluoro-4-methylpyridin-2-yl)-2-{[(4-methoxymethyl-2-methylpyrimidin-5-yl)oxy]methyl}cyclopropanecarboxamide], the IC50 (read-out: OX2 (IC50)) is 7 nM.
